Reference: US20250034208A1, “PEPTIDES AND PHARMACEUTICAL AND COSMETIC COMPOSITIONS CONTAINING THEM” (LABORATOIRES D'ANJOU, priority 2021, published 2025)
Bridges are numbered along the chain shown (N, C = ends). Where no end group is shown, it is not given here.

Legend:
[1] = test system: freshly isolated human primary keratinocytes; assay: Wound closure test of a sheet of primary keratinocytes; assay type: cell-based; details: for wound closure activity, ranking of peptides: increasing order LRIRFTYK, CSGLRIRFTYKSGC, CLRIRFTYKC, Example 11, FIG. 10
Text: (§1) • the HT1080 line: Cells originating from epithelial lines, tools commonly used for cell adhesion studies, were first used. The cells of the HT1080 line (fibrosarcoma, Human), American Type Culture Collection CCL-121. • primary human keratinocytes: For the cell viability and migration test, freshly isolated normal human keratinocytes were used. Human keratinocytes were obtained from preputial biopsy (surgical waste, tissue bank and cells, Edouard Herriot Hospital). The culture medium used during the experiments was the medium defined for KGM-Gold keratinocytes sold by Lonza Bioscience containing 0.15 mM of CaCl2, pH 7.2 to 7.4. The keratinocytes were obtained according to the Boyce and Ham technique (Cultivation, frozen storage, and clonal growth of normal human epidermal keratinocytes in serum free-media, Tiss Cuit. Meth. 1985, 9:83-93). The pieces of skin, after rinsing in PBS buffer containing antibiotics, were freed of the fat tissue and cut into 3 mm^2 pieces, then placed in a sterile solution of 0.25% trypsin in PBS for 16 h at 4° C. The dermis/epidermis separation was carried out in a Petri dish containing culture medium in order to stop the action of trypsin. The epidermis fragments were sucked in and discharged several times to detach the free basal cells. After centrifuging, 3.10^4 live cells were seeded per cm2 on dishes for tissue cultivation (Corning, Polylabo, France). The keratinocytes were cultured at 37° C. in a CO2 incubator (5% CO2, 95% air and 98% moisture). The sub-culture took place when the cells reached the sub-confluence. The sheet of cells was then rinsed with PBS, then covered with a solution of Trypsin-EDTA (0.05-0.02%). After a short incubation at 37° C., the cells were detached, counted, and re-seeded.
6-well plates (Costar) are covered with collagen I for 16 h then rinsed with PBS. Three inserts with two Ibidi-sterile wells (Ibidi, reference: 80209) are deposited in each of the wells. 2×10^4 keratinocytes are deposited in each insert well in KBM-Gold. After two hours of incubation in humid air at 37° C., composed of 5% CO2 and 95% atmospheric air, the culture medium is sucked out and the inserts removed. KBM-Gold with no supplement is added to each of the wells of the plate. The cells are thus: not treated (medium alone), treated with supplement-free KBM-Gold containing the peptides studied (25 μg/ml), or treated with supplement-free KBM-Gold containing EGF at 10 ng/ml (Peprotech). The cultures are stopped at 12 h and 24 h, the media are sucked out, and the cells are fixed with 2% PBS-Paraformaldehyde for 20 minutes. After the fixator has been sucked out, the cells are colored with a 0.1% solution of Crystal Violet in ultrapure water for 30 minutes. The Crystal Violet is removed and the wells are rinsed with water. Image acquisitions are carried out and the injuries are quantified using Adobe Photoshop CS3 software.

[2] = test system: keratinocytes of the epidermis and other epithelial cells; details: prior patent EP1784423 of the Applicant; cited from earlier work
HT1080 cells = assay: Cell adhesion test (colorimetric, crystal violet) on immobilized peptide; assay type: cell-based, Human; details: for adhesion response dependent on the amount of peptide immobilized in the wells: K substitution variants of LRIRATYG, Example 6, FIG. 5
Text: as §1, with “After centrifuging, 3.10^4 live cells were seeded per cm2 on dishes for tissue cultivation (Corning, Polylabo, France). The keratinocytes were cultured at 37° C. in a CO2 incubator (5% CO2, 95% air and 98% moisture). The sub-culture took place when the cells reached the sub-confluence. The sheet of cells was then rinsed with PBS, then covered with a solution of Trypsin-EDTA (0.05-0.02%).” left out, “re-seeded. […]” for “re-seeded.”
After seeding the cells, the plates were placed in an incubator at 37° C. in a 5% CO2 atmosphere. […] The absorbance was read at 570 nm using a plate reader (Victor^2 V Spectrophotometer, Perkin Elmer). […] The negative control value is the average of the absorbance of the three control wells (BSA). This was subtracted from each of the absorbance values obtained for the experimental points. The averages of the absorbance values for each of the conditions were calculated and were presented in the form of a curve, with on the y-axis, the average values of the absorbance, and on the x-axis, the various quantities of substrate immobilized in the wells (in μg or mole). […]

[3] = 25 μg/ml peptide, 12 and 24 h, Example 5, FIG. 4

For “CSGLRIRFTYKSGC (disulfide 1-14 (inferred); not fully specified)”, the “wound closure activity, ranking of peptides” value [1] was “most significant activities”.

For “TALRIRATYGEY (Other sequences) [reference compound]”, the “induction of cell adhesion” value [2] is given as “specifically induces the adhesion”, the “wound closure activity, LRIRATYG and TALRIRATYGEY compared between them” value [1, 3] is given as “equivalent activity between them” and the “wound closure activity compared with negative control” value ([1]; 25 μg/ml peptide, 24 h, negative control culture medium alone, Example 5, FIG. 4) is given as “significantly greater than that of the negative control”.

In the case of “CLRIRFTYKC (disulfide 1-10 (inferred); not fully specified)”, the “wound closure activity, ranking of peptides” value [1] is reported as “most significant activities”.

With CSGLRIRATYGSGC (Other sequences) the “adhesion induction activity relative to the LRIRATYG motif” value (HT1080 cells; low concentration of immobilized peptide, Examples 2 and 3, FIG. 1 and 2) was “activity being doubled at a low concentration”, the “wound closure activity compared to TALRIRATYGEY and LRIRATYG” value [1, 3] was “significantly greater activity at 12 and 24 h” and the “wound closure activity compared with the other peptides” value ([1]; 25 μg/ml peptide, 12 h and 24 h, Example 4, FIG. 3) was “significantly greater than that of the other peptides”. For the same sequence, the “wound closure compared with negative control” value ([1]; 25 μg/ml peptide, 12 h and/or 24 h post-injury, negative control culture medium alone, Example 4, FIG. 3) was “very significantly greater than that of the negative control” and the “wound closure activity compared with negative control” value ([1]; 25 μg/ml peptide, time not given, Example 5, FIG. 4) was “significantly greater than that of the negative control”.

In the case of LRIRKTYG (Other sequences), the “adhesion response dependent on the amount of peptide immobilized in the wells” value (HT1080 cells) is reported as “disappears”.

For LRIRATYK (Other sequences), the “adhesion response dependent on the amount of peptide immobilized in the wells” value (HT1080 cells) was “decreases”.
